How the values were obtained:
Assay in all cases: pTyr-Var library bacterial peptide display kinase screen (enrichment scores)
[1] = system: EPHB1 kinase domain; format: biochemical, human; conditions: for Screen (variant relative to reference peptide, measured in the pTyr-Var library screen): sheet "EPHB1", variant seq vs reference seq, bacterial peptide display enrichment; for Screen: sheet EPHB1, effect of the variant peptide relative to its reference peptide in the pTyr-Var library screen (enrichment scores)
[2] = biological target: T1, c-Abl kinase domain (Mus musculus, UniProt P00520); format: biochemical;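 also: log2 fold change in enrichment of variant over reference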
T1 sequence (P00520 242-493 limits assumed): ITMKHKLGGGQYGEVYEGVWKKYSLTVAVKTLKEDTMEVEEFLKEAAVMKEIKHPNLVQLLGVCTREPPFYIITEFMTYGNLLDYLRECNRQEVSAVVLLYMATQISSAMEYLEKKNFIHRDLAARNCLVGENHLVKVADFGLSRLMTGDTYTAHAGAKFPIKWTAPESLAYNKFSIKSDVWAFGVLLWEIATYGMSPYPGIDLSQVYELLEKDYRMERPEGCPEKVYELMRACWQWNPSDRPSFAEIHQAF

[3] = system: Fer kinase domain; format: biochemical, mouse; conditions: sheet "Fer";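 also: log2 fold change in enrichment of variant over reference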
[4] = system: EPHB2 kinase domain; format: biochemical, human; conditions: sheet EPHB2;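 also: log2 fold change in enrichment of variant over reference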
[5] = biological target: c-Src kinase domain (Homo sapiens, UniProt P12931); format: biochemical; conditions: sheet "Src";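 also: log2 fold change in enrichment of variant over reference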
[6] = sheet "Abl", effect of variant peptide relative to its reference peptide in pTyr-Var library screen (enrichment)
[7] = value of the variant peptide against its reference peptide in the pTyr-Var library screen with Fer
[8] = effect of variant peptide relative to its reference peptide in the pTyr-Var library screen (enrichment scores)
[9] = effect of the variant peptide relative to its reference peptide in the pTyr-Var library screen
[10] = variant peptide versus its reference peptide in the pTyr-Var library screen
[11] = effect of the variant relative to its reference peptide in the pTyr-Var library screen
[12] = fig5-data2, sheet "Abl", Screen for the variant/reference peptide pair, pTyr-Var library
[13] = variant peptide relative to its reference peptide, pTyr-Var library screen enrichment

## HSREDYFECFQ [ZIM2_Y411_Q408R]
[1]
  Screen (variant relative to reference peptide, measured in the pTyr-Var library screen): -0.06401
[2]; [6]
  Screen: -4.72

## FPSLPYSPVSS [CAMKK2_Y128_C123Y_YF]
[3]; [7]
  Screen: -0.5143

## PKSWNYELPAT [PROM1_Y34_A31S]
[1]
  Screen: 0.9154
[4]; [8]
  Screen: 0.6095

## NNDLCYWVLEL [IARS1_Y434_P437L]
[1]
  Screen: -1.633
[5]; [9]
  Screen: 1.285
[4]; [8]
  Screen: -2.3

## RRIHSYRGFLW [VHL_Y112_H115Y_YF]
[1]
  Screen (variant relative to reference peptide, measured in the pTyr-Var library screen): -2.336
[2]; [6]
  Screen: -4.49
[5]; [10]
  Screen: -2.75
[4]; [11]
  Screen: -0.9029

## QRHFVYFFSFL [PTEN_Y176_R173H_YF]
[3]; [7]
  Screen: 0.1451

## KCCCIYEKPRS [PPP1R11_Y64_A69S]
[3]; [7]
  Screen: -0.1382
[2]; [12]
  Screen: 0.7147
[5]; [10]
  Screen: -0.2424

## FVTSMYNEILI [TRPV1_Y310_M315I]
[3]; [13]
  Screen: 0.9219

## NAGDFYDLFGG [PTPN11_Y63_T59A_YF]
[3]; [13]
  Screen: 0.394
[2]; [12]
  Screen: -0.2092
[5]; [10]
  Screen: 0.4386

## AGDGRYEVLFL [SEMA3F_Y478_A474G]
[3]; [13]
  Screen: 0.6103

## VWALTYCDLHK [KCNH2_Y827_R823W]
[1]
  Screen: 1.577

## NQELIYEGQRL [TBK1_Y354_R357Q]
[3]; [13]
  Screen: 0.5191
[5]; [10]
  Screen: -0.1995

## QPEDIYHQTWA [GBA_Y244_G241E]
[3]; [7]
  Screen: 1.354
[5]; [9]
  Screen: 0.7767

## DPLLTYWFPPK [LMNA_Y481_R482W]
[1]
  Screen: 4.875
[5]; [9]
  Screen: 3.284
[4]; [8]
  Screen: 5.36

## LEQGEYALRSH [HADHB_Y244_D242G]
[4]; [8]
  Screen: -1.376

## RPPFTYATLIH [FOXP3_Y342_R347H]
[1]
  Screen: 0.127
[5]; [9]
  Screen: 0.0554

## PEVSGYCHFAD [TG_Y234_C237Y_YF]
[1]
  Screen (variant relative to reference peptide, measured in the pTyr-Var library screen): -1.855

## FTFNSYFMHWV [IGHV1-46_Y51_T49N_YF]
[3]; [7]
  Screen: 1.775

## TQNAVYSAANF [DDX5_Y535_G533A_YF]
[3]; [7]
  Screen: 0.4164
[1]
  Screen: 1.023
[5]; [9]
  Screen: 0.6379
[4]; [8]
  Screen: 1.01

## PLDGEYFTPQI [TP53_Y327_L330P]
[1]
  Screen (variant relative to reference peptide, measured in the pTyr-Var library screen): -0.3708
[5]; [10]
  Screen: -3.182
[4]; [11]
  Screen: 0.1464

## DNEALYDTCFR [TUBB2B_Y208_I210T]
[3]; [13]
  Screen: -0.2841
[1]
  Screen (variant relative to reference peptide, measured in the pTyr-Var library screen): -0.7019
[5]; [10]
  Screen: -0.1626
[4]; [11]
  Screen: -0.7919

## LDAFIYDAALL [GRIN2A_Y730_V734L]
[3]; [7]
  Screen: -0.3557
[1]
  Screen: -0.2525
[5]; [9]
  Screen: 0.1286
[4]; [8]
  Screen: -0.3341

## NNHGNYIVLLG [ETFDH_Y172_R175L]
[1]
  Screen: 3.773
[4]; [8]
  Screen: 2.804

## CFSSEYHFVGG [CTSC_Y345_Y340C_YF]
[1]
  Screen: -0.7957
[5]; [9]
  Screen: -0.6697
[4]; [8]
  Screen: -0.9567

## TGFRPYVCPFD [YY1_Y383_D380Y_YF]
[1]
  Screen (variant relative to reference peptide, measured in the pTyr-Var library screen): 1.233
[2]; [6]
  Screen: -3.682

## RRIHSYRGQLW [VHL_Y112_H115Q]
[1]
  Screen (variant relative to reference peptide, measured in the pTyr-Var library screen): -1.797
[5]; [10]
  Screen: -2.232

## LKMLVYMDMSK [LRRC7_Y234_L235M]
[1]
  Screen: 1.011

## ITNLLYHVVGG [GBA_Y412_W417G]
[3]; [7]
  Screen: -1.01
[1]
  Screen: 0.07416
[5]; [9]
  Screen: -0.2777
[4]; [8]
  Screen: -0.0356

## RRIHSYRGHLC [VHL_Y112_W117C]
[1]
  Screen (variant relative to reference peptide, measured in the pTyr-Var library screen): -1.181
[5]; [10]
  Screen: -2.769

## HRGCLYLAIEF [TEK_Y899_Y897C_YF]
[4]; [8]
  Screen: 0.2155

## ASENVYVNTAH [CTSC_Y150_I153T]
[3]; [7]
  Screen: -2.892
[1]
  Screen: -1.518
[5]; [9]
  Screen: -1.46

## CPSLLYSPVSS [CAMKK2_Y128_P127L]
[3]; [7]
  Screen: 2.071
[1]
  Screen: 3.226
[5]; [9]
  Screen: 2.179
[4]; [8]
  Screen: 2.723

## SSSPTYLDLPF [GLI3_Y168_P169L]
[1]
  Screen: 3.84

## ADCRFYTFPQM [GAMT_Y223_A224T_YF]
[3]; [7]
  Screen: -1.641
[1]
  Screen: -1.572
[4]; [8]
  Screen: -2.189

## LFSNAYLSDLA [ALDH1A1_Y119_N121S_YF]
[1]
  Screen: 1.358
[5]; [9]
  Screen: 1.319

## MGSFNYLGFAW [SPTLC2_Y178_R183W_YF]
[1]
  Screen (variant relative to reference peptide, measured in the pTyr-Var library screen): 1.333

## NTGVFYDLFGG [PTPN11_Y63_D61V_YF]
[3]; [7]
  Screen: 0.6171
[5]; [10]
  Screen: 0.1029

## PNAFIYVVQLP [L1CAM_Y420_A415P_YF]
[2]; [12]
  Screen: 0.6294
[4]; [8]
  Screen: 0.851

## FVPSFYHAFSG [ACTN4_Y265_S262P_YF]
[1]
  Screen: -0.2788
[5]; [9]
  Screen: -1.103

## IDPFTYTPFGS [CYP3A4_Y432_I431T_YF]
[3]; [7]
  Screen: -1.49
[5]; [9]
  Screen: -1.161

## RVLHNYLVWCV [ECEL1_Y400_R404C]
[1]
  Screen: -0.3702

## SDPIVYTLENI [EMR1_Y534_I533V]
[3]; [7]
  Screen: -1.778
[5]; [9]
  Screen: -0.3296

## IDAVCYFRMEN [NPHS2_Y194_I192V_YF]
[2]; [12]
  Screen: -2.251

## IGGHAYGDQFR [IDH1_Y135_R132G_YF]
[2]; [12]
  Screen: -1.313

## LTERSYSFVTT [ACTA1_Y200_G199S]
[3]; [7]
  Screen: 1.792
[2]; [12]
  Screen: 0.4799

## CPFNLYAAQLS [HGD_Y40_E42A_YF]
[1]
  Screen: 0.6281

## LEPGIYIPEDD [XPNPEP3_Y455_I450L]
[2]; [6]
  Screen: -2.688

## KMKGDYFCFLA [YWHAG_Y130_R132C_YF]
[1]
  Screen (variant relative to reference peptide, measured in the pTyr-Var library screen): 1.698
[5]; [10]
  Screen: 0.4816
[4]; [11]
  Screen: 1.601

## NGEDLYAGSTD [XRCC1_Y515_P514L]
[2]; [6]
  Screen: 3.605

## PRLMLYNPTTF [EGFR_Y270_P266R_YF]
[2]; [12]
  Screen: -1.245

## RIDPDYMGRVR [IGSF9_Y81_V82M]
[2]; [12]
  Screen: 0.7055

## RPAFTYATLIR [FOXP3_Y342_P339A]
[1]
  Screen: -0.4742
[2]; [12]
  Screen: 1.493
[5]; [9]
  Screen: 1.034

## ESAAIYNPVIF [RHO_Y301_K296E_YF]
[3]; [13]
  Screen: 0.08101
[5]; [10]
  Screen: 0.5635

## DVQNEYDSNHC [ZFYVE16_Y36_A35E]
[2]; [6]
  Screen: 2.88

## QRCFVYFFSFL [PTEN_Y176_R173C_YF]
[3]; [7]
  Screen: 0.1249

## PQDVTYARLHS [LILRB4_Y412_Q414R]
[2]; [12]
  Screen: -1.045
[5]; [9]
  Screen: -0.3004

## FGSGNYNVFGN [HNRNPA2B1_Y300_D302V_YF]
[1]
  Screen: -1.963

## LHNLFYQLEAE [PKP2_Y616_S615F]
[3]; [7]
  Screen: 1.632
[5]; [10]
  Screen: 4.082
[4]; [8]
  Screen: 1.672

## PLGPLYASSNT [INSR_Y992_P997T]
[3]; [7]
  Screen: -0.7776

## EIIPFYGMSSF [FNDC3B_Y175_T179S_YF]
[2]; [12]
  Screen: -1.124

## DVRQEYSGMIL [PLXND1_Y616_P617S]
[2]; [12]
  Screen: -0.7051

## LPKDLYLISQM [LARP4_Y141_S137P]
[1]
  Screen: -0.9052

## LEIETYPRLLD [KRT12_Y429_R430P]
[2]; [12]
  Screen: 0.133

## KFLENYFDLEK [MMP3_Y41_K45E_YF]
[1]
  Screen: 0.3113

## RALCHYFKLNI [ETV6_Y401_R399C_YF]
[2]; [12]
  Screen: 0.924

## FDSPFYQDSLP [TSC1_Y508_R509Q]
[3]; [13]
  Screen: 2.568

## DKPENYRRLDI [VHL_Y175_V170D]
[2]; [6]
  Screen: -0.4882
